From patent publication US20240148701A1, “WOULD HEALING METHODS” (The University of Sydney, priority 2021, published 2024) come the findings set out here.

The subject of one experiment is HUVECs. Put plainly: Tubule formation in HUVECs on reduced growth factor extracellular matrix. Type of experiment: cell-based, human. The conditions noted are these: 10 and 100 ng/ml compared to the control. The protocol:
Human umbilical vein endothelial cells (HUVECs; Lonza C2519AS, pooled source, Australia) were grown using standard cell culture conditions in endothelial cell growth medium (EGM Plus®, containing 2% fetal bovine serum, Lonza, Australia). All cells were regularly confirmed to be mycoplasma negative. Two different pooled source cell lines were used in experiments and all were used within passages 2-4. Human adult dermal microvascular endothelial cells were also obtained from Lonza (CC-2543, Lonza Australia) and cultured as above but using endothelial growth medium 2-MV bulletkit. Endothelial colony forming cells (ECFCs) were derived from the peripheral blood of participants in the BioHEART study. This registered study (ACTRN12618001322224) complies with the Declaration of Helsinki and the study protocol and design has been approved by the Northern Sydney Local Health District Human Research Ethics Committee (HREC/17/HAWKE/343). […]
Once they were ˜70% confluent, cells were re-suspended in diluted EGM Plus® (1:3) and plated on reduced-growth factor extracellular matrix (15 mg/ml, Cultrex, Trevigen, USA) at a density of 1.5×10^4 cells/cm^2. […] Cells were incubated in an EVOS FL Auto Imaging system for 16 hours and tubule formation recorded every hour. Optimal tube formation occurred at the 8-hour timepoint; tubule number at this point was quantified manually using NIH Image J software. […]

Experiment [1] is described as follows: Glucose tolerance testing in type 2 diabetes model. It counts as in vivo, mouse. The procedure: Glucose tolerance testing was conducted in fasted type 2 diabetic mice. Rodent chow was removed overnight and testing was conducted in the morning. After baseline glucose testing mice were injected intraperitoneal with sterile D-glucose (2 g/kg). Repeated blood glucose sampling was conducted every 15-30 minutes for 2 hours.

A further experiment relates to C57BL6/J mice. Kind of experiment: Hind limb ischemia in type 2 diabetes model, laser Doppler perfusion. It counts as in vivo, mouse. The conditions noted are these: type 2 diabetes mice. The procedure: Male C57BL6/J mice 8-10 weeks of age were obtained from Australian BioResources (Moss Vale, NSW) with 12 hour light/dark cycles and free access to water and mouse chow (Specialty Feeds, Australia). Mice were housed in groups of 2-5 in standard cages within a Physical Containment Level 2 laboratory. For in vivo angiogenesis 16 mice underwent the femoral vascular ligation model. Mice were anaesthetized with 1.5-2% isoflurane vaporized in oxygen and constant body temperature was maintained. All mice received pre-operative and 24-hour post-operative analgesia (carprofen, 5 mg/kg s.c). A small incision (˜15 mm) was made in the hind limb skin directly over the femoral vasculature. A portion of the femoral artery and vein, distal to the origin of the profunda femoris artery and proximal to the saphenous artery, were isolated and two ligations were performed using 6-0 silk sutures. The femoral artery and vein were then excised between the ligation sites 27. […] Hind limb blood flow was assessed prior to ligation (baseline) and immediately after undergoing hind limb ischemia, with subsequent imaging at day 3, 7, 10, 14, 21 and 28 post hind limb ischemia. […] The rate of reperfusion in the hind limb was calculated as a ratio of blood flow in the ischemic versus non-ischemic contralateral limb. […]

With `C[C@H](Cc1ccc2c(c1)OC(C(=O)[O-])(C(=O)[O-])O2)NC[C@H](O)c1cccc(Cl)c1.[Na+].[Na+]` [CL 316,243], the “number of tubules formed” value in the experiment on HUVECs is reported as “significantly increased”. The “fasted blood glucose levels” value in experiment [1] (fasted for glucose tolerance tests, did not reach significant difference) was “appeared lower”. For the same compound, the glucose tolerance entry in experiment [1] (non-hyperglycemic, non-diabetic controls) is given as “even improved”; in experiment [1] (type 2 diabetic mice) it was “improved”. Besides, the reperfusion post-ischemia entry in the experiment on C57BL6/J mice was “augmented reperfusion”.
